For ten molecules, IC50 results are on record in US9428508B2, “2,4-diamino-6,7-dihydro-5H-pyrrolo[2,3]pyrimidine derivatives as FAK/Pyk2 inhibitors” (Centaurus BioPharma Co., Ltd., priority 2011, dated 2016).

Assay [1] has as its target PYK2 (Homo sapiens (Human), UniProt Q14289). Put plainly: Biochemical assay for PYK2 activity (LANCE TR-FRET, ULight-poly Glu,Ala,Tyr substrate). The conditions noted are these: GST-tagged PYK2, 40 min reaction. As for the experimental part:
(§1) Biochemical Assay for FAK/Pyk2 Activity
(§2) GST-tagged FAK was purchased from Invitrogen (PV3832). GST-tagged PYK2 was purchased from Invitrogen (PV4567). The activity of FAK/PYK2 was measured by monitoring the phosphorylation of a fluorophore labeled ULight-poly Glu, Ala, Tyr (1:1:1) peptide substrate from Perkin Elmer (TRF0101) in the presence of ATP. The phosphorylated tyrosine residue was recognized by a LANCE Europium chelate labeled anti-phosphotyrosine (PY20) antibody from Perkin Elmer (AD0066). This brought the fluorophore and europium chelate in close proximity ([…]) that upon excitation at 320 nm by an Envision (PerkinElmer), energy can be transferred from the donor Europium chelate to the acceptor fluorophore. […] The strength of the signal was, therefore, directly proportional to the FAK/PYK2 activity.
(§3) To measure inhibitory activity of FAK/PYK2 inhibitors, compounds were first prepare as a 1 mM stock in 100% DMSO and 3-fold serial dilution was performed in a 96-well plate (Corning, 3897) to generate 12 different concentration of 100× stock. A 5 μl of 100× stock of each concentration was added to wells containing 95 μl of 1× reaction buffer (40 mM Tris, pH7.5, […], 1 mM DTT and 1 mM CHAPS) to generate 5× stock. Then 2 μl of 5× stock of each concentration was added to a 384 wells-OptiPlate (PerkinElmer, 6007299).
For PYK2, 5 μl of 2 nM PYK2 and 1.5 μl of 666 nM ULight-poly Glu, Ala, Tyr (1:1:1) peptide substrate, prepared in above reaction buffer, were added to each well. The reaction was initiated by adding 1.5 μl of 46.6 μM ATP. The reaction was allowed to proceed for 40 min before being quenched with 5 μl of 40 mM EDTA stop buffer prepared in 1×LANCE detection buffer (PerkinElmer, CR97-100).
(§4) Upon quenching of the reaction, 5 μl of 8 nM anti-phosphotyrosine antibody was added to each well and incubated for 60 minutes. The plate was measured using an Envision (PerkinElmer) based on the theory mentioned above.
(In general: Time-resolved FRET reads energy transfer from a long-lived donor to a nearby acceptor.)

The target of assay [2] is FAK (Homo sapiens (Human), UniProt Q05397). Put plainly: Biochemical assay for FAK activity (LANCE TR-FRET, ULight-poly Glu,Ala,Tyr substrate). The note with it: GST-tagged FAK, 120 min reaction. The protocol: as §1, §2, §3
For FAK, 4 μl of 2.5 nM FAK, 1 ul of 8 μg/μl BSA and 1.5 μl of 666 nM ULight-poly Glu, Ala, Tyr (1:1:1) peptide substrate, prepared in above reaction buffer, were added to each well. The reaction was initiated by adding 1.5 μl of 33.3 μM ATP. The reaction was allowed to proceed for 120 min before being quenched with 5 μl of 40 mM EDTA stop buffer prepared in 1×LANCE detection buffer (PerkinElmer, CR97-100).
as §4

pIC50: −log10 of the molar value.

FAK, sequence (Q05397 whole entry): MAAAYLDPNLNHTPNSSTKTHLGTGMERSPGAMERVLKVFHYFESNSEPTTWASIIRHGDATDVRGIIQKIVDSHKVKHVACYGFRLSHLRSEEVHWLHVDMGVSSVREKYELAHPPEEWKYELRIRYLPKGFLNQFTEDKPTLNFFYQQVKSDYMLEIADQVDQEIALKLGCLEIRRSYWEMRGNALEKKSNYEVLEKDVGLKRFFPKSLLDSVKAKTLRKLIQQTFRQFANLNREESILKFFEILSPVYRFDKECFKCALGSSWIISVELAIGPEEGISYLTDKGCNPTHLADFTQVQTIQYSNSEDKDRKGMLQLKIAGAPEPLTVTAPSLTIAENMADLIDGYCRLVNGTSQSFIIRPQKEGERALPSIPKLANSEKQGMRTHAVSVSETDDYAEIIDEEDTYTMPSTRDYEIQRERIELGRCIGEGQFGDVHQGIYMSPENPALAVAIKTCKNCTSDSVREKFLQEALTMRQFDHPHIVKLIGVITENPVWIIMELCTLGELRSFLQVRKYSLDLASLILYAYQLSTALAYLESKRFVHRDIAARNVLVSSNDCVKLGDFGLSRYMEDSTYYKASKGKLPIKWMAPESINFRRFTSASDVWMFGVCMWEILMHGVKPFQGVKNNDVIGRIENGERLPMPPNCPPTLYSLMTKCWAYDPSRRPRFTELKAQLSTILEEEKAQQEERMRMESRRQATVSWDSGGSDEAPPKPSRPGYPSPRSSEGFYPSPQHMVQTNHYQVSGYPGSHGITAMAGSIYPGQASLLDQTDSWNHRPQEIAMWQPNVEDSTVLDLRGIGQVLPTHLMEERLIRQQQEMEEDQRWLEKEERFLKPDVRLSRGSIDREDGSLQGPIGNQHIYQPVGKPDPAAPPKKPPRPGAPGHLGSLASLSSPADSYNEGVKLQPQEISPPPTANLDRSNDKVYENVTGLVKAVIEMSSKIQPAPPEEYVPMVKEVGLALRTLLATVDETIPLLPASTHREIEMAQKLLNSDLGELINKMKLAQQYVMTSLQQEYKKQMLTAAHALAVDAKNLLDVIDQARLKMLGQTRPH
PYK2, sequence (Q14289 whole entry): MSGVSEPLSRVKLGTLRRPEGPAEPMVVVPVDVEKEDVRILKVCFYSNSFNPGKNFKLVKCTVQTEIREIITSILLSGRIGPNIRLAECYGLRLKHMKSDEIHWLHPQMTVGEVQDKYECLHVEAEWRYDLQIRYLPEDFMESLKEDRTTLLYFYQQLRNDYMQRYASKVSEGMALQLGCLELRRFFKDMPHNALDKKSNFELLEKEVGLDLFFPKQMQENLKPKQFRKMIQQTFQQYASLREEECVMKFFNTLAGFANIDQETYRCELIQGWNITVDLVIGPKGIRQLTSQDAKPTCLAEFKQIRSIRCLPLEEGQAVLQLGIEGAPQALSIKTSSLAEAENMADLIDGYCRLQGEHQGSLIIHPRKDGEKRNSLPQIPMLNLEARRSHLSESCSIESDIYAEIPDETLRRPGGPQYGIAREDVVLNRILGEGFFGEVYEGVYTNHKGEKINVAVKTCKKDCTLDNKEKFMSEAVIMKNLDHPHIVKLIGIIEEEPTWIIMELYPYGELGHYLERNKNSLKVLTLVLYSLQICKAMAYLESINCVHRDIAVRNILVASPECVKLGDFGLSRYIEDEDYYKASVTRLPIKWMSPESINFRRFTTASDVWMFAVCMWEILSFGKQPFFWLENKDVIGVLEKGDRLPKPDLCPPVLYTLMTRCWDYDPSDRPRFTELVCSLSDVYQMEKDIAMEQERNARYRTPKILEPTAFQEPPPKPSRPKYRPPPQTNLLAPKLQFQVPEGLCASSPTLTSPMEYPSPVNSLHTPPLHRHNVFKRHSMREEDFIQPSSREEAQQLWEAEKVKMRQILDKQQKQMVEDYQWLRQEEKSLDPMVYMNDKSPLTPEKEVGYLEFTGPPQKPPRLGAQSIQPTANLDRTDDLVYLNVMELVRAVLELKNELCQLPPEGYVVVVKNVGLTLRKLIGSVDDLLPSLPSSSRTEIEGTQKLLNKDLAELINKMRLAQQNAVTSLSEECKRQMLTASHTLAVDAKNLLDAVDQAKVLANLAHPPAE

In general, pIC50 refers to −log10 of the IC50, conventionally taken in molar units. A high value points to a low IC50. For the molecule `CNC(=O)c1ccccc1Nc1nc(Nc2ccc(N3CCOCC3)cc2OC)nc2c1CCN2` [Example 1, 2-(2-(2-methoxy-4-morpholinophenylamino)-6,7-dihydro-5H-pyrrolo[2,3-d]pyrimidin-4-ylamino)-N-methylbenzamide], the pIC50 in assay [1] and in assay [2] was more than 7.00 throughout.

Take `CNC(=O)c1ccc2c(c1Nc1nc(Nc3ccc(N4CCOCC4)cc3OC)nc3c1C(C)(C)CN3)OCO2` [Example 126, 4-(2-(2-methoxy-4-morpholinophenylamino)-5,5-dimethyl-6,7-dihydro-5H-pyrrolo[2,3-d]pyrimidin-4-ylamino)-N-methylbenzo[d][1,3]dioxole-5-carboxamide]: the negative-log IC50 (pIC50) is less than 6.00 in assay [1] and more than 6.00 in assay [2].

Turning to `COc1cc(N2CCOCC2)ccc1Nc1nc2c(c(Nc3ccc(F)c(F)c3)n1)C1(CC1)CN2` [Example 153, N^4′-(3,4-difluorophenyl)-N^2′-(2-methoxy-4-morpholinophenyl)-6′,7′-dihydrospiro[cyclopropane-1,5′-pyrrolo[2,3-d]pyrimidine]-2′,4′-diamine], the negative-log IC50 (pIC50) in assay [1] was more than 6.30; in assay [2], more than 6.70.

As for `COc1cc(N2C(C)COCC2C)ccc1Nc1nc2c(c(Nc3ccccc3S(=O)(=O)NC(C)C)n1)CCN2` (centres unmarked) [Example 84, 2-(2-(4-(3,5-dimethylmorpholino)-2-methoxyphenylamino)-6,7-dihydro-5H-pyrrolo[2,3-d]pyrimidin-4-ylamino)-N-isopropylbenzenesulfonamide], the pIC50 in assay [1] is more than 7.00; in assay [2], more than 7.30.

As to `COc1cc(N2CCOCC2)ccc1Nc1nc2c(c(Nc3ccccc3S(=O)(=O)Nc3ccccc3)n1)CCN2` [Example 51, 2-(2-(2-methoxy-4-morpholinophenylamino)-6,7-dihydro-5H-pyrrolo[2,3-d]pyrimidin-4-ylamino)-N-phenylbenzenesulfonamide], the pIC50 in assay [1] was more than 6.30; in assay [2] it was more than 6.70.

In the case of `CC(C)NS(=O)(=O)c1ccccc1Nc1nc(Nc2ccc(C(=O)N3CCOCC3)cc2)nc2c1CCN2` [Example 65, N-isopropyl-2-(2-(4-(morpholine-4-carbonyl)phenylamino)-6,7-dihydro-5H-pyrrolo[2,3-d]pyrimidin-4-ylamino)benzenesulfonamide], the negative-log IC50 (pIC50) in assay [1] and in assay [2] was more than 7.70 each time.

Take `Cc1cc(N2CCOCC2)ccc1Nc1nc2c(c(Nc3ccccc3S(=O)(=O)NC(C)C)n1)CCN2` [Example 66, N-isopropyl-2-(2-(2-methyl-4-morpholinophenylamino)-6,7-dihydro-5H-pyrrolo[2,3-d]pyrimidin-4-ylamino)benzenesulfonamide]: the results for the pIC50 in assay [1] and in assay [2] were more than 7.30 and more than 7.70, respectively.

For `COc1cc(N2CCS(=O)(=O)CC2)ccc1Nc1nc2c(c(Nc3ccccc3S(=O)(=O)NC(C)C)n1)CCN2` [Example 87, 2-(2-(4-(4-(S,S-dioxothio)piperidin-1-yl)-2-methoxyphenylamino)-6,7-dihydro-5H-pyrrolo[2,3-d]pyrimidin-4-ylamino)-N-isopropylbenzenesulfonamide], the pIC50 in assay [1] and in assay [2] was more than 7.70 in each case.

Turning to `COc1cc(N2CCOCC2)ccc1Nc1nc2c(c(Nc3ccccc3S(=O)(=O)N(C)C)n1)C(C)(C)CN2` [Example 111, 2-(2-(2-methoxy-4-morpholinophenylamino)-5,5-dimethyl-6,7-dihydro-5H-pyrrolo[2,3-d]pyrimidin-4-ylamino)-N,N-dimethylbenzenesulfonamide], the negative logarithm of the IC50 (pIC50) in assay [1] and in assay [2] was more than 7.70 in each case.

Take `COc1cc(N2CCOCC2)ccc1Nc1nc2c(c(Nc3cccc(C)n3)n1)C(C)(C)CN2` [Example 123, N^2-(2-methoxy-4-morpholinophenyl)-5,5-dimethyl-N^4-(6-methylpyridin-2-yl)-6,7-dihydro-5H-pyrrolo[2,3-d]pyrimidine-2,4-diamine]: the pIC50 in assay [1] was more than 6.30; in assay [2], more than 6.70.
